BigSolDB 2.1

CN1C(C(=O)Nc2ccccn2)=C(O)c2sc(Cl)cc2S1(=O)=O
Settings	solubility (mole fraction)
in PEG-400, 298.15 K	0.00855
in PEG-400, 303.15 K	0.0101
in PEG-400, 308.15 K	0.0114
in PEG-400, 313.15 K	0.0129
in PEG-400, 323.15 K	0.0169

solubility (mole fraction)
Settings	in ethanol	in ethyl acetate	in ethylene glycol	in isopropanol	in n-butanol	in propylene glycol	in sec-butanol	in transcutol	in water
298.15 K	8.43e-06	8.39e-05	0.000224	9.05e-06	1.36e-05	3.17e-05	2.99e-05	0.000317	2.91e-06
303.15 K	1.16e-05	9.08e-05	0.000334	1.16e-05	1.55e-05	3.6e-05	3.59e-05	0.000382	4.12e-06
308.15 K	1.45e-05	9.86e-05	0.000474	1.45e-05	1.75e-05	4.05e-05	4.19e-05	0.000462	5.52e-06
313.15 K	1.98e-05	0.000107	0.000634	1.81e-05	1.99e-05	4.5e-05	4.78e-05	0.000552	7.27e-06
323.15 K	3.22e-05	0.000121	0.00108	2.67e-05	2.39e-05	5.4e-05	6.58e-05	0.000743	1.19e-05
